Results published in patent US8399482B2, “6-substituted isoquinolines and isoquinolinones” (Sanofi, priority 2008, dated 2013).

How the values were obtained:
Format in all cases: biochemical
[1] = target: T1, recombinant human PKG1-beta (Homo sapiens, UniProt Q13976); assay: Determination of Protein Kinase G inhibition (selectivity); conditions: from IC50 values
T1 construct: PKG1-beta (full-length, with N-terminal His-tag); His-tag (N); purchased Millipore GmbH, Schwalbach, Germany
T1 sequence (Q13976 1-686 isoform Q13976-2): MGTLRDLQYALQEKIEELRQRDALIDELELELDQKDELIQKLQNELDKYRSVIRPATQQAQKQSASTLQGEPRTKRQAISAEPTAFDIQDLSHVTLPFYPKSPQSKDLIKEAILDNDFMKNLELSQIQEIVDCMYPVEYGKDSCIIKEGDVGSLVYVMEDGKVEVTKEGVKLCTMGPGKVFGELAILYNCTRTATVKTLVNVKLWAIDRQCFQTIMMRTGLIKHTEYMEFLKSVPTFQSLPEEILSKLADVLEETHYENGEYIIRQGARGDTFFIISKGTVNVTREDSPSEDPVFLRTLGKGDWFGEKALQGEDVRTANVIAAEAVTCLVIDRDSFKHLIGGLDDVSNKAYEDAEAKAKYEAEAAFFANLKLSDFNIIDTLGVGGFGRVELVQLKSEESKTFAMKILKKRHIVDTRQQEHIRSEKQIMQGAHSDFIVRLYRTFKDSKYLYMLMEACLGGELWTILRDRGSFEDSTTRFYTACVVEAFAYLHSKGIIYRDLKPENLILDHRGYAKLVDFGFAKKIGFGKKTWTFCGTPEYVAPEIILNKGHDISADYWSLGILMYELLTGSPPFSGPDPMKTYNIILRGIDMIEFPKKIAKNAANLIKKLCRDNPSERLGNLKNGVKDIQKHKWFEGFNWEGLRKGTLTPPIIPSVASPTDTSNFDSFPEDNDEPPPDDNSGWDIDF
Protocol: (§1) 2) Determination of Protein Kinase a and Protein Kinase G Inhibition
(§2) To measure PKA and PKG1-beta inhibition, IC50 values were determined according to the following protocol:
(§3) Active recombinant human PKG1-beta (full-length, with N-terminal His-tag) was purchased from Millipore GmbH, Schwalbach, Germany. Active recombinant human PKA (residues 1-351, N-terminal His-tag) was obtained from Invitrogen, Karlsruhe, Germany. The peptide substrate, Fluorescein-[…]-COOH, was obtained from JPT Peptide Technologies, Berlin, Germany. Adenosine-5′-triphosphate (ATP), bovine serum albumine (BSA), dimethylsulphoxide (DMSO), 4-(2-Hydroxyethyl)piperazine-1-ethanesulfonic acid (Hepes), Brij-35, dithiothreitol (DTT) and Pluronic F-68 were purchased from Sigma-Aldrich, Munich, Germany. Tris(hydroxymethyl)-aminomethane (Tris), magnesium chloride, NaOH, 1M HCl and EDTA were obtained from Merck Biosciences, Darmstadt, Germany. “Complete” protease inhibitor was from Roche Diagnostics, Mannheim, Germany. Test compounds were diluted to the appropriate concentrations in buffer 1 (25 mM Tris-HCl, pH 7.4, 5 mM MgCl2, 2 mM DTT, 0.02% (w/v) BSA, 0.01% Pluronic F-68 and 3% DMSO). PKG1-beta and PKA were diluted to concentrations of 150 ng/ml and 30 ng/ml, respectively, in buffer 2. The peptide substrate and ATP were diluted to concentrations of 3 μM and 120 μM, respectively, in the buffer 2. Two μl of the compound solution were mixed with 2 μl of the diluted enzyme in a 384-well small volume microtiter plate (Greiner, Bio-One, Frickenhausen, Germany), and the kinase reaction was initiated by addition of 2 μl of the solution containing peptide substrate and ATP. After 60 min incubation at 32° C., the reaction was stopped by addition of 20 μl of a solution containing 100 mM Hepes-NaOH, pH 7.4, 0.015% (v/v) Brij-35, 45 mM EDTA and 0.227% chip coating reagent 1 (Caliper Lifescience Inc, Hopkinton, Mass.). Phosphorylation of the substrate peptide was then detected on a Caliper 3000 instrument essentially as described by Pommereau et al (J. Biomol. Screening 9(5), 409-416, 2004). Separation conditions were as follows: Pressure −1.3 psi, upstream voltage −1562 V, downstream voltage −500 V, sample sip time 200 ms, Positive controls (buffer 1 instead of compound) and negative controls (buffer 1 instead of compound and buffer 2 instead of kinase solution) were run in parallel on each plate. The following products/compounds were tested in said assay by using the respective form (salt or free base) obtained as in the examples described above and the following activities were measured.

[2] = target: T2, human recombinant ROCK II (Homo sapiens, UniProt O75116); assay: Determination of Rho kinase inhibition (ROCK II, Caliper peptide phosphorylation assay); conditions: respective form (salt or free base) as obtained in the examples, 60 min at 32° C.
T2 construct: recombinant human ROCK-II residues 11-552; His6 (N); purchased Millipore GmbH, Schwalbach, Germany
Summary of the method: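 Enzyme: active N-terminal His6-tagged recombinant human ROCK-II, residues 11-552. Substrate: a fluorescein-labelled peptide, with ATP. IC50 values were determined.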

recombinant human PKA = target: T3, recombinant human PKA (Homo sapiens, UniProt P17612); assay: Determination of Protein Kinase A inhibition (selectivity); conditions: from IC50 values
T3 construct: recombinant human PKA (residues 1-351, N-terminal His-tag); His-tag (N); purchased Invitrogen, Karlsruhe, Germany
Protocol: as §1, §2, §3

T2 sequence (O75116 11-552): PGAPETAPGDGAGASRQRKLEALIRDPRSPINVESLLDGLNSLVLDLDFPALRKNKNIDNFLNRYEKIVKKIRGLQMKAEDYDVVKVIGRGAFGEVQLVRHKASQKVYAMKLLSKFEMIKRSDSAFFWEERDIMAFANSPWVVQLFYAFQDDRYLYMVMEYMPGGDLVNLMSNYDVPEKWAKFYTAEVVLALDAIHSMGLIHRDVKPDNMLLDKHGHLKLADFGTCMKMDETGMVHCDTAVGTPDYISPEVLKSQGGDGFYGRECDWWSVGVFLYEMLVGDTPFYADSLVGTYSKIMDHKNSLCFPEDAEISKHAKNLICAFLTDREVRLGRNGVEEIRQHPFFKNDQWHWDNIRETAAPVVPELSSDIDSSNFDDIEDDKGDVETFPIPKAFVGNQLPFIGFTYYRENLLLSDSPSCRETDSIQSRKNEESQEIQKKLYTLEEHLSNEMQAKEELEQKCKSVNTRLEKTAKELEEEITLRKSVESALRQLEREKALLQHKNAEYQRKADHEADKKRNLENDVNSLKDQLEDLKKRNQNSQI

Row | SMILES | Selectivity against PKG [1] [fold] | IC50 [2] [nM] | Selectivity against PKA (recombinant human PKA) [fold] | pIC50 [2]
1 | CCC(N)C1(CC(C)C)CCC(Oc2cc3cc[nH]c(=O)c3cc2Cl)CC1 (single isomer, unassigned) [Example 28, 6-[4-(1-Amino-propyl)-4-isobutyl-cyclohexyloxy]-7-chloro-2H-isoquinolin-1-one] | >10 | 100 to 1000 | >10 | 
2 | CCC(N)C1(Cc2ccccc2)CCC(Oc2cc3cc[nH]c(=O)c3cc2Cl)CC1 (single isomer, unassigned) [Example 30, 6-[4-(1-Amino-propyl)-4-benzyl-cyclohexyloxy]-7-chloro-2H-isoquinolin-1-one] | >10 | 10 to 100 | >300 | 
3 | CC(C)C1(C(N)c2cncs2)CCC(Oc2cc3cc[nH]c(=O)c3cc2Cl)CC1 (single isomer, unassigned) [Example 47, 6-[4-(Amino-thiazol-5-yl-methyl)-4-isopropyl-cyclohexyl-oxy]-7-chloro-2H-isoquinolin-1-one] | >300 | 10 to 100 | >300 | 
4 | CCC(N)C1(C(F)(F)F)CCC(Oc2cc3cc[nH]c(=O)c3cc2Cl)CC1 (single isomer, unassigned) [Example 103, 6-[4-(1-Amino-propyl)-4-trifluoromethyl-cyclohexyloxy]-7-chloro-2H-isoquinolin-1-one] | >1000 | ≤ 10 | >1000 | 
5 | CCC(N)C1(C2CCOCC2)CCC(Oc2cc3cc[nH]c(=O)c3cc2Cl)CC1 (single isomer, unassigned) [Example 106] | >1000 | ≤ 10 | >1000 | 
6 | CCC(N)C1(CC)CCC(Oc2cc3cc[nH]c(=O)c3cc2Cl)CC1 (single isomer, unassigned) [Example 107] | >1000 | ≤ 10 | >1000 | 
7 | CCC(N)C1(CC)CCC(Oc2cc3cc[nH]c(=O)c3cc2Cl)CC1 (single isomer, unassigned) [Example 108] | >10 |  | >1000 | +++++++ (8.0 ≦ pIC50)
8 | CCC(N)[C@]1(CC)CC[C@H](Oc2cc3cc[nH]c(=O)c3cc2Cl)CC1 (stereo partly drawn) [Example 34, cis-6-[4-(1-Amino-propyl)-4-ethyl-cyclohexyloxy]-7-chloro-2H-isoquinolin-1-one] | >300 | ≤ 10 | >1000 | 
9 | CCCC(N)[C@]1(C(C)C)CC[C@H](Oc2cc3cc[nH]c(=O)c3cc2Cl)CC1 (stereo partly drawn) [Example 35, cis-6-[4-(1-Amino-butyl)-4-isopropyl-cyclohexyloxy]-7-chloro-2H-isoquinolin-1-one] | >10 | 10 to 100 | >300 | 
10 | CC[C@]1(C(C)N)CC[C@@H](Oc2cc3cc[nH]c(=O)c3cc2C)CC1 (stereo partly drawn) [Example 37, cis-6-[4-(1-Amino-ethyl)-4-ethyl-cyclohexyloxy]-7-methyl-2H-isoquinolin-1-one] | >100 | 10 to 100 | >300 | 
11 | CCCC[C@]1(C(N)CC)CC[C@@H](Oc2cc3cc[nH]c(=O)c3cc2Cl)CC1 (stereo partly drawn) [Example 38, cis-6-[4-(1-Amino-propyl)-4-butyl-cyclohexyloxy]-7-chloro-2H-isoquinolin-1-one] | >300 | ≤ 10 | >1000 | 
12 | CCC(N)[C@]1(CC)CC[C@H](Oc2cc3cc[nH]c(=O)c3cc2F)CC1 (stereo partly drawn) [Example 50, cis-6-[4-(1-Amino-propyl)-4-ethyl-cyclohexyloxy]-7-fluoro-2H-isoquinolin-1-one] | >10 | 10 to 100 | >300 | 
13 | CCC(N)[C@]1(CC)CC[C@H](Oc2cc3cc[nH]c(=O)c3cc2C)CC1 (stereo partly drawn) [Example 52, cis-6-[4-(1-Amino-propyl)-4-ethyl-cyclohexyloxy]-7-methyl-2H-isoquinolin-1-one] | >10 | 100 to 1000 | >100 | 
14 | CCC(N)[C@]1(CC)CC[C@H](Oc2c(C)cc3c(=O)[nH]ccc3c2C)CC1 (stereo partly drawn) [Example 54, cis-6-[4-(1-Amino-propyl)-4-ethyl-cyclohexyloxy]-5,7-dimethyl-2H-isoquinolin-1-one] | >10 | 100 to 1000 | >10 | 
15 | CCC(N)[C@]1(OC)CC[C@H](Oc2cc3cc[nH]c(=O)c3cc2Cl)CC1 (stereo partly drawn) [Example 58, cis-6-[4-(1-Amino-propyl)-4-methoxy-cyclohexyloxy]-7-chloro-2H-isoquinolin-1-one] | >300 | 10 to 100 | >300 | 
16 | CCC(N)[C@]1(OC)CC[C@@H](Oc2cc3cc[nH]c(=O)c3cc2Cl)CC1 (stereo partly drawn) [Example 59, trans-6-[4-(1-Amino-propyl)-4-methoxy-cyclohexyloxy]-7-chloro-2H-isoquinolin-1-one] | >100 | 10 to 100 | >100 | 
17 | C[C@]1(C(N)c2ccccc2)CC[C@@H](Oc2cc3cc[nH]c(=O)c3cc2Cl)CC1 (stereo partly drawn) [Example 61, cis-6-[4-(Amino-phenyl-methyl)-4-methyl-cyclohexyloxy]-7-chloro-2H-isoquinolin-1-one] | >300 | 10 to 100 | >100 | 
18 | CCCC(N)[C@]1(C)CC[C@H](Oc2cc3cc[nH]c(=O)c3cc2Cl)CC1 (stereo partly drawn) [Example 62, cis-6-[4-(1-Amino-butyl)-4-methyl-cyclohexyloxy]-7-chloro-2H-isoquinolin-1-one] | >100 | ≤ 10 | >1000 | 
19 | CC(C)CC(N)[C@]1(CC2CC2)CC[C@H](Oc2cc3cc[nH]c(=O)c3cc2Cl)CC1 (stereo partly drawn) [Example 64, cis-6-[4-(1-Amino-3-methyl-butyl)-4-cyclopropyl-methyl-cyclohexyloxy]-7-chloro-2H-isoquinolin-1-one] | >300 | ≤ 10 | >1000 | 
20 | CCC(N)[C@]1(C2CCCCC2)CC[C@H](Oc2cc3cc[nH]c(=O)c3cc2Cl)CC1 (stereo partly drawn) [Example 65] | >100 | 10 to 100 | >300 | 
21 | NC(C1CC1)[C@]1(CC2CCOCC2)CC[C@H](Oc2cc3cc[nH]c(=O)c3cc2Cl)CC1 (stereo partly drawn) [Example 68, cis-6-[4-(Amino-cyclopropyl-methyl)-4-(tetrahydro-pyran-4-ylmethyl)-cyclohexyloxy]-7-chloro-2H-isoquinolin-1-one] | >300 | ≤ 10 | >1000 | 
